Results as given in patent US7927791B2, “Methods for identifying small molecules that modulate premature translation termination and nonsense mediated mRNA decay” (PTC Therapeutics, Inc., priority 2002, dated 2011).

What was measured:
[1] = tested on: HIV-1 TAR element TAR RNA oligonucleotide; assay: Gel retardation analysis of Tat peptide binding to TAR RNA (non-denaturing polyacrylamide gel); settings: 12% non-denaturing polyacrylamide gel, TK buffer, FIG. 2
Protocol: FIG. 2. Gel retardation analysis to detect peptide-RNA interactions. In 20 μl reactions containing 50 pmole end-labeled TAR RNA oligonucleotide, increasing concentrations of Tat47-58 peptide (0.1 uM, 0.2 uM, 0.4 uM, 0.8 uM, 1.6 uM) was added in TK buffer. The reaction mixture was then heated at 90° C for 2 min and allowed to cool slowly to 24° C. 10 μl of 30% glycerol was added to each sample and applied to a 12% non-denaturing polyacrylamide gel. The gel was electrophoresed using 1200 volt-hours at 4° C. in TBE Buffer. Following electrophoresis, the gel was dried and the radioactivity was quantitated with a phosphorimager. The concentration of peptide added is indicated above each lane.
(§1) Tris-potassium chloride (TK) buffer is composed of 50 mM Tris-HCl pH 7.4, 20 mM KCl, 0.1% Triton X-100, and 0.5 mM MgCl2. Tris-borate-EDTA (TBE) buffer is composed of 45 mM Tris-borate pH 8.0, and 1 mM EDTA. Tris-Potassium chloride-magnesium (TKM) buffer is composed of 50 mM Tris-HCl pH 7.4, 20 mM KCl, 0.1% Triton X-100 and 5 mM MgCl2.
RNA oligonucleotides were purchased from Dharmacon, Inc, Lafayette, Colo.). […] The gel was exposed to an intensifying screen and radioactivity was quantitated using a Typhoon phosporimager molecular Dynamics).

[2] = tested on: HIV-1 TAR element TAR RNA oligonucleotide; assay: Gel retardation assay by automated capillary electrophoresis (Tat peptide and TAR RNA); assay type: binding; settings: increasing concentrations of Tat peptide, SCE9610 apparatus, FIG. 6
Protocol: FIG. 6. Gel retardation analysis to detect peptide-RNA interactions. In reactions containing increasing concentrations of Tat47-58 peptide (0.1 mM, 0.2 mM, 0.4 mM, 0.8 mM, 1.6 mM) 50 pmole TAR RNA oligonucleotide was added in TK buffer. The reaction mixture was then heated at 90° C. for 2 min and allowed to cool slowly to 24° C. The reactions were loaded onto a SCE9610 automated capillary electrophoresis apparatus (SpectruMedix; State College, Pennsylvania). The peaks correspond to the amount of free TAR RNA (“TAR”) or the Tat-TAR complex (“Tat-TAR”). The concentration of peptide added is indicated below each lane.
as §1, with “0.5 mM MgC2. Tris-borate-EDTA (IBE)” for “0.5 mM MgCl2. Tris-borate-EDTA (TBE)”, “MgC2. Tris-borate-EDTA (IBE) buffer is” for “MgCl2. Tris-borate-EDTA (TBE) buffer is”
RNA oligonucleotides were purchased from Dharmacon, Inc, Lafayette, Colo.). 500 pmole of a 5′ fluorescein labeled oligonucleotide corresponding to the HIV-1 TAR element TAR RNA (5′-[…]-3′ (SEQ ID NO: 2); Huq et al., 1999, Nucleic Acids Research. 27:1084-1093; Hwang et al., 1999, Proc. Natl. Acad. Sci. USA 96:12997-13002) was used. […]

[3] = tested on: HIV TAR RNA element oligonucleotide; assay: Gel mobility shift specificity control: gentamicin with an unrelated oligonucleotide; assay type: binding; settings: incubated with 10 mg/ml gentamicin, FIG. 4
Protocol: (§2) FIG. 4. The presence of 10 pg/ml gentamicin produces a gel mobility shift in the presence of the 16S rRNA oligonucleotide. 20 μl reactions containing increasing concentrations of gentamicin (100 ng/ml, 10 ng/ml, 1 ng/ml, 100 pg/ml, and 10 pg/ml) were added to 50 pmole end-labeled RNA oligonucleotide in TKM buffer were treated as described for FIG. 3.
RNA oligonucleotides were purchased from Dharmacon, Inc, Lafayette, Colo.). 500 pmole of either a 5′ fluorescein labeled oligonucleotide corresponding to the 16S rRNA A site (5′-[…]-3′ (SEQ ID NO:1); Moazed & Noller, 1987, Nature 327:389-394; Woodcock et al., 1991, EMBO J. 10:3099-3103; Yoshizawa et al., 1998, EMBO J. 17:6437-6448) or a 5′ fluorescein labeled oligonucleotide corresponding to the HIV-1 TAR element TAR RNA (5′-[…]-3′ (SEQ ID NO: 2); Huq et al., 1999, Nucleic Acids Research. 27:1084-1093; Hwang et al., 1999, Proc. Natl. Acad. Sci. USA 96:12997-13002) was 3′ labeled with 5′-^32P cytidine 3′,5′-bis(phosphate) (NEN) and T4 RNA ligase (NEBiolabs) in 10% DMSO as per manufacturer's instructions. The labeled oligonucleotides were purified using G-25 Sephadex columns (Boehringer Mannheim). […] The gel was exposed to an intensifying screen and radioactivity was quantitated using a Typhoon phosporimager molecular Dynamics). […]

[4] = tested on: RNA oligonucleotide corresponding to the 16S rRNA A site; assay: Gel mobility shift assay of gentamicin binding to the 16S rRNA A site oligonucleotide
Protocol: FIG. 3. Gentamicin interacts with an oligonucleotide corresponding to the 16S rRNA. 20 μl reactions containing increasing concentrations of gentamicin (1 ng/ml, 10 ng/ml, 100 ng/ml, 1 μg/ml, 10 μg/ml, 50 μg/ml, 500 μg/ml) were added to 50 pmole end-labeled RNA oligonucleotide in TKM buffer, heated at 90° C. for 2 min and allowed to cool slowly to 24° C. 10 μl of 30% glycerol was added to each sample and the samples were applied to a 13.5% non-denaturing polyacrylamide gel. The gel was electrophoresed using 1200 volt-hours at 4° C. in TBE Buffer. Following electrophoresis, the gel was dried and the radioactivity was quantitated using a phosphorimager. The concentration of gentamicin added is indicated above each lane.
as §2
FIG. 5. Gentamicin binding to the 16S rRNA oligonucleotide is weak in the absence of MgCl2.
as §1
RNA oligonucleotides were purchased from Dharmacon, Inc, Lafayette, Colo.). 500 pmole of either a 5′ fluorescein labeled oligonucleotide corresponding to the 16S rRNA A site (5′-[…]-3′ (SEQ ID NO:1); Moazed & Noller, 1987, Nature 327:389-394; Woodcock et al., 1991, EMBO J. 10:3099-3103; Yoshizawa et al., 1998, EMBO J. 17:6437-6448) or a 5′ fluorescein labeled oligonucleotide corresponding to the HIV-1 TAR element TAR RNA (5′-[…]-3′ (SEQ ID NO: 2); Huq et al., 1999, Nucleic Acids Research. 27:1084-1093; Hwang et al., 1999, Proc. Natl. Acad. Sci. USA 96:12997-13002) was 3′ labeled with 5′-^32P cytidine 3′,5′-bis(phosphate) (NEN) and T4 RNA ligase (NEBiolabs) in 10% DMSO as per manufacturer's instructions. The labeled oligonucleotides were purified using G-25 Sephadex columns (Boehringer Mannheim). For Tat-TAR gel retardation reactions the method of Huq et al. (Nucleic Acids Research, 1999, 27:1084-1093) was utilized with TK buffer containing 0.5 mM MgCl2 and a 12-mer Tat peptide (YGRKKRRQRRRP (SEQ ID NO: 3; single letter amino acid code). For 16S rRNA-gentamicin reactions, the method of Huq et al was used with TKM buffer. In 20 μl reaction volumes 50 pmoles of ^32P cytidine-labeled oligonucleotide and either gentamicin sulfate (Sigma) or the short Tat peptide (Tat47-58) in TK or TKM buffer were heated at 90° C. for 2 minutes and allow to cool to room temperature (approximately 24° C.) over 2 hours. Then 10 μl of 30% glycerol was added to each reaction tube and the entire sample was loaded onto a TBE non-denaturing polyacrylamide gel and electrophoresed at 1200-1600 volt-hours at 4° C. The gel was exposed to an intensifying screen and radioactivity was quantitated using a Typhoon phosporimager molecular Dynamics).

Substance | gel mobility shift of TAR RNA oligonucleotide in the presence of the peptide [1] | shift of TAR RNA peak in capillary electrophoresis [2] | gel mobility shift of unrelated HIV TAR RNA oligonucleotide [3] | lowest gentamicin concentration that produces the mobility shift ([4]; TKM buffer (5 mM MgCl2), 1 ng/ml to 500 μg/ml tested, FIG. 3) [ng/mL] | gel shift when gentamicin is added after renaturation has proceeded to 75° C. ([4]; added after the renaturation step has proceeded to 75° C.) | gentamicin binding to the 16S rRNA oligonucleotide in the absence of MgCl2 ([4]; buffer without MgCl2, FIG. 5) | gel shift when gentamicin is added at 90° C. or 85° C. ([4]; gentamicin present during entire denaturation/renaturation cycle, data not shown) | gentamicin concentration that must be added to produce a gel shift when MgCl2 is not present ([4]; no MgCl2 (TK buffer), FIG. 5) [mg/mL] | mobility shift of 16S rRNA A site oligonucleotide on addition of gentamicin ([4]; varying concentrations, TKM buffer, FIG. 3)
YGRKKRRQRRRP [Tat47-58 peptide] | a clear shift is visible | a clear shift is visible |  |  |  |  |  |  | 
gentamicin |  |  | does not result in a gel mobility shift | ≤ 10 | a mobility shift is not produced | weak | a gel shift is visualized | 1 | produces a mobility shift
